Structures can show the parent of a compound that is named as a salt.

A short description of series [1]: Dynamic moisture sorption (DMS) assessment. It is filed as physicochemical. The method, then:
A dynamic moisture sorption (DMS) assessment (also known as a moisture sorption-desorption profile) was performed for samples of the crystalline diacetate salt using a VTI atmospheric microbalance, SGA-100 system (VTI Corp., Hialeah, Fla. 33016). A sample size of approximately 10 mg was used and the humidity was set at the ambient value at the start of the analysis. A typical DMS analysis consisted of three scans: ambient to 2% relative humidity (RH), 2% RH to 90% RH, 90% RH to 5% RH at a scan rate of 5% RH/step. The mass was measured every two minutes and the RH was changed to the next value (+/−5% RH) when the mass of the sample was stable to within 0.01% for 5 consecutive points.

A short description of series [2]: DSC thermal analysis (thermal decomposition). It is filed as physicochemical. As to conditions: DSC trace, heating ramp 10° C./min. The method, then: DSC was performed using a TA Instruments Model Q-10 module with a Thermal Analyst controller, and data were collected and analyzed using TA Instruments Thermal Solutions software. A sample of about 1 mg of the crystalline diacetate salt was accurately weighed into an aluminum pan with lid, and evaluated using a linear heating ramp of 10° C./min from ambient temperature to approximately 300° C. The DSC cell was purged with dry nitrogen during use. A representative DSC trace for this salt is shown in FIG. 2 and depicts one transition at about 114° C., no thermal decomposition below about 160° C., and maximum endothermic heat flow at about 112° C.
In general terms: DSC measures the heat that a sample takes up or gives off during a temperature scan.

`CN(CCN1CCC(OC(=O)Nc2ccccc2-c2ccccc2)CC1)C(=O)c1cccc(C(=O)NCCNCc2ccc(O)cc2)c1` [crystalline diacetate salt, biphenyl-2-ylcarbamic acid 1-[2-({3-[2-(4-hydroxybenzylamino)ethylcarbamoyl]benzoyl}methylamino)ethyl]piperidin-4-yl ester]: the “weight gain when exposed to up to 90% RH (DMS, reversible sorption/desorption profile)” value in series [1] is listed as “less than 18%”. The “no thermal decomposition below (DSC)” value in series [2] was no less than 160 °C.

With `CN(CCN1CCC(OC(=O)Nc2ccccc2-c2ccccc2)CC1)C(=O)c1cccc(C(=O)NCCNCc2ccc(O)cc2)c1` [crystalline dipropionate salt, Biphenyl-2-ylcarbamic Acid 1-[2-({3-[2-(4-Hydroxybenzylamino)ethylcarbamoyl]benzoyl}methylamino)ethyl]piperidin-4-yl Ester], the “weight gain when exposed to up to 90% RH (DMS, reversible sorption/desorption profile)” value in series [1] is “less than 11%”. The “no thermal decomposition below (DSC)” value in series [2] is no less than 150 °C.

For the molecule `CN(CCN1CCC(OC(=O)Nc2ccccc2-c2ccccc2)CC1)C(=O)c1cccc(C(=O)NCCNCc2ccc(O)cc2)c1` [crystalline monooxalate salt, Biphenyl-2-ylcarbamic Acid 1-[2-({3-[2-(4-Hydroxybenzylamino)ethylcarbamoyl]benzoyl}methylamino)ethyl]piperidin-4-yl Ester], the “weight gain when exposed to up to 90% RH (DMS, reversible sorption/desorption profile)” value in series [1] is “less than 14%”. In addition, the “no thermal decomposition below (DSC)” value in series [2] is no less than 150 °C.

These data come from patent US8487107B2, “Biphenyl compounds useful as muscarinic receptor antagonists” (Theravance, Inc., priority 2005, dated 2013).
